Results: patent US20050059610A1 (priority 2003, published 2005)
Where a SMILES comes first, the peptide text is derived from it.

Legend:
[1] = tested on: polymicrobial sepsis (2CLP); test: Cecal-ligation and double-puncture (2CLP) sepsis: survival, cytokines, lung HSP 72; type: in vivo, Sprague-Dawley rats
Description: Further, increased Interleukin-18 (IL-18) levels appear to play a critical role in cytokine-induced organ failure and can be predictive of mortality in sepsis patients.
Increased Interleukin-18 (IL-18) levels appear to play a critical role in cytokine-induced organ failure and can be predictive of mortality in sepsis patients.

[2] = tested on: polymicrobial sepsis (CLP); test: Cecal ligation and puncture (CLP): lung and heart tissue metabolism by MRS, survival; type: in vivo, Sprague-Dawley rats; details: single large dose following onset of sepsis, CLP rat
Experimental: Survival was monitored for five days. In a separate group of animals (n=4/group), lung and heart tissue was harvested 24 hours post-CLP and tissue metabolism was analyzed by ^1H-MRS and ^31P-MRS.

[3] = tested on: myocardial ischemia/reperfusion injury; details: single dose 18 hours prior to myocardial injury, rat
[4] = tested on: sepsis (CLP); test: CLP with or without quercetin (HSP 70 inhibitor): survival, lung HSP/NOS, metabolism, TNF; type: in vivo, Sprague-Dawley rats; details: quercetin 400 mg/kg IP 6 hours pre-CLP
Experimental: Methods: Male Sprague-Dawley rats were divided into 5 groups. Two groups were treated with 400 mg/kg of quercetin (Q) IP (HSP 70 inhibitor) 6 hours pre-CLP. […] The final group (CONT, n=6) received no treatment. Five-day survival was monitored. In separate studies, lung was harvested 24-hours post-CLP and tissue metabolism analyzed by 31P- and 1H-MRS. A final study analyzed blood for TNF- at 6 hours post-CLP and lung tissue 6 hours post-CLP for HSP-70, iNOS, eNOS, and activated heat shock factor-1 (HSF-1).

[5] = tested on: polymicrobial sepsis and peritonitis (CLP); test: CLP peritonitis/polymicrobial sepsis, GLN 30 minutes after induction, with or without quercetin; type: in vivo, rat; details: quercetin with GLN
Description: Cecal ligation and puncture (CLP) in the rat was chosen as the appropriate model.

[6] = tested on: congestive heart failure; details: 4 weeks of supplementation (Azuma et al 1983); cited from earlier work

C[C@H](N)C(=O)N[C@@H](CCC(N)=O)C(=O)O [alanyl-glutamine] (H-Ala-Gln-OH)
lung HSP 72 expression versus control ([1]; following 2CLP): restore normal heat shock protein expression | inflammatory cytokine release ([1]; single large dose following onset of sepsis, CLP rat): attenuate | cellular metabolism in the lung [2]: improve | myocardial function following ischemia and reperfusion injury [3]: improve myocardial function

O=c1c(O)c(-c2ccc(O)c(O)c2)oc2cc(O)cc(O)c12 [Q, quercetin, reference compound]
effect on TNF- or NOS expression [4]: No Q effect | HSF-1 activation and subsequent HSP70 expression ([4]; with GLN): Inhibition | effect on GLN's improvements in lung tissue metabolic dysfunction ([4]; with GLN): blocked | effect on GLN's survival benefit ([4]; with GLN): abrogated | effect on GLN attenuation of tissue metabolic dysfunction [5]: inhibited | effect on GLN improvement of survival [5]: inhibited | effect on GLN-enhanced HSP 70 expression and HSF-1 activation [5]: blocked

NCCS(=O)(=O)O [taurine]
dyspnea, palpitation, crackles, edema, and New York Heart Association functional class [6]: highly significant improvement
